The text below walks through data of patent publication US8124840B2, “Regulating metabolism by modifying the level of trehalose-6-phosphate” (Syngenta Mogen B.V., priority 1996, dated 2012).

In one test the test system is hexokinase. Nature of the test: Hexokinase assay on mouse hybridoma cell extract with/without trehalose-6-phosphate. In kind it is biochemical. The conditions noted are these: for V2 (ODU/min): hexokinase rate with T6P. The protocol: Hexokinase activity was measured in an assay containing 0.1 M Hepes-KOH pH 7.0, 4 mM MgCl2, 5 mM ATP, 0.2 mM NADP^+, 10 U/ml Creatine Phosphate Kinase (dissolved in 50% glycerol, 0.1% BSA, 50 mM Hepes pH 7.0), 3.5 mM Creatine Phosphate, 7 U/ml Glucose-6-Phosphate Dehydrogenase and 2 mM Glucose by measuring the increase in OD at 340 nm at 25° C.
When 2 mM Fructose was used instead of glucose as substrate for the hexokinase reaction, 3.8 U/ml Phosphoglucose Isomerase was included. Alternatively, a hexokinase assay as described by Gancedo et al. (1977) J. Biol. Chem. 252, 4443 was used.
A hexokinase assay was performed using glucose or fructose as substrate under conditions as described by Gancedo et al. (see above). Mouse hybridoma cells were subjected to osmotic shock by exposing a cell pellet to 20% sucrose, followed by distilled water. This crude protein extract was used in the hexokinase assay (50 μl) extract corresponding to ca. 200 μg protein).

A further test concerns potato microtubers. Nature of the test: Trehalose accumulation in potato microtubers induced on medium with Validamycin A. The class given is in vivo, Solanum tuberosum cv. Kardal. As to conditions: for Trehalose (% fresh weight): +Validamycin A 10^−3 M. As to the method: Stem segments of in vitro potato plants harbouring an auxiliary meristem were transferred to micro-tuber inducing medium. Micro-tuber inducing medium contains 1 X MS-salts supplemented with R3 vitamins, 0.5 g/l MES (final pH=5.8, adjusted with KOH) and solidified with 8 g/l Daichin agar, 60 g/l sucrose and 2.5 mg/l kinetin. After 3 to 5 weeks of growth in the dark at 24° C., micro-tubers were formed.
(§1) Validamycin A was isolated from Solacol, a commercial agricultural formulation (Takeda Chem. Indust., Tokyo) as described by Kendall et al. (1990) Phytochemistry 29, 2525. The procedure involves ion-exchange chromatography (QAE-Sephadex A-25 (Pharmacia), bed vol. 10 ml, equilibration buffer 0.2 mM Na-Pi pH 7) from a 3% agricultural formulation of Solacol. Loading 1 ml of Solacol on the column and eluting with water in 7 fractions, practically all Validamycin was recovered in fraction 4. Based on a 100% recovery, using this procedure, the concentration of Validamycin A was adjusted to 1.10^−3 M in MS-medium, for use in trehalose accumulation tests. Alternatively, Validamycin A and B may be purified directly from Streptomyces hygroscopicus var. limoneus, as described by Iwasa et al. (1971) J. Antibiot. 24, 119, the content of which is incorporated herein by reference.
Carbohydrates were determined quantitatively by anion exchange chromatography with pulsed electrochemical detection. Extracts were prepared by extracting homogenized frozen material with 80% EtOH. After extraction for 15 minutes at room temperature, the soluble fraction is evaporated and dissolved in distilled water. Samples (25 μl) were analyzed on a Dionex DX-300 liquid chromatograph equipped with a 4×250 mm Dionex 35391 carbopac PA-1 column and a 4×50 mm Dionex 43096 carbopac PA-1 precolumn. Elution was with 100 mM NaOH at 1 ml/min followed by a NaAc gradient. Sugars were detected with a pulsed electrochemical detector (Dionex, PED). Commercially available carbohydrates (Sigma) were used as a standard.
Potato Solanum tuberosum cv. […] The presence of small amounts of trehalose in wild-type plants indicates the presence of a functional trehalose biosynthetic pathway.
Evidence for the presence of a trehalose biosynthesis pathway in tobacco was obtained by culturing wild-type plants in the presence of 10^−3M of the trehalase inhibitor Validamycin A. The treated plants accumulated very small amounts of trehalose, up to 0.0021% (fw). Trehalose accumulation was never detected in any control plants cultured without inhibitor. Similar data were obtained with wild-type microtubers cultured in the presence of Validamycin A. Ten out of seventeen lines accumulated on average 0.001% trehalose (fw)/(Table 4).

A further test relates to wild-type tobacco plants. Nature of the test: Trehalose accumulation in wild-type tobacco plants cultured with Validamycin A. In kind it is in vivo. As to conditions: wild-type tobacco plants cultured with 10^−3M Validamycin A. As to the method:
as §1, with “1.10^-3” for “1.10^−3”, “reference. Carbohydrates were determined quantitatively by anion exchange chromatography with pulsed electrochemical detection. […] Samples (25 μl) were analyzed on a Dionex DX-300 liquid chromatograph equipped with a 4×250 mm Dionex 35391 carbopac PA-1 column and a 4×50 mm Dionex 43096 carbopac PA-1 precolumn. […] Sugars were detected with a pulsed electrochemical detector (Dionex, PED). […] Trehalose accumulation was never detected in any control plants cultured without inhibitor. […]” for “reference.”

Test [1] relates to trehalases from various sources. The conditions noted are these: cited from earlier work.
Another test concerns α- or β-glycohydrolase. As to conditions: except for trehalase; cited from earlier work.
[2] abbreviates: substrate Fructose 20 mM, T6P 0.23.
The mark [3] stands for this setting: substrate Fructose 20 mM, T6P 0.43.
Setting [4] is: substrate Fructose 20 mM, T6P 0.83.
Setting [5] is: substrate Fructose 20 mM, T6P 1.67.
[6] abbreviates: substrate Glucose 2 mM, T6P 0.83.
Setting [7] is: substrate Glucose 20 mM, T6P 0.83.
[8] abbreviates: substrate Glucose 100 mM, T6P 0.83.

On to `O=P(O)(O)OC[C@H]1O[C@H](O[C@H]2O[C@H](CO)[C@@H](O)[C@H](O)[C@H]2O)[C@H](O)[C@@H](O)[C@@H]1O` [T-6-P, trehalose-6-phosphate], for which, in the test with hexokinase (crude extract of mouse hybridoma cells), the “Hexokinase activity in mouse cell extracts” value was “is inhibited”. Moreover, the “V2 (ODU/min)” value in the test on hexokinase (setting [2]) was determined as 0.0205 ODU/min; with hexokinase (setting [3]), 0.0197 ODU/min; with hexokinase (setting [4]), 0.0151 ODU/min; in the test on hexokinase (setting [5]) it was 0.0133 ODU/min; in the test on hexokinase (setting [6]) it was 0.0133 ODU/min; in the test with hexokinase (setting [7]) it was 0.0141 ODU/min. Also, the “V2 (ODU/min)” value in the test on hexokinase (setting [8]) stood at 0.0125 ODU/min. For the same compound, the “Efficiency of hexokinase inhibition, glucose versus fructose as substrate” value in the test on hexokinase (mouse cell extracts) is listed as “No difference”. Also, the “Inhibition (%)” value in the test with hexokinase (setting [2]) stood at 1%; in the test on hexokinase (setting [3]), 26%; in the test with hexokinase (setting [4]), 35%; with hexokinase (setting [5]) it was 46%; with hexokinase (setting [6]), 35%; in the test with hexokinase (setting [7]), 35%. Also, in the test with hexokinase (setting [8]), the “Inhibition (%)” value came to 34%.
Take `OCC1=C[C@@H](N[C@H]2C[C@H](CO)[C@@H](O[C@H]3O[C@@H](CO)[C@H](O)[C@@H](O)[C@@H]3O)[C@H](O)[C@H]2O)[C@H](O)[C@@H](O)[C@@H]1O` [Validamycin A]: the “Trehalose (% fresh weight)” value stood at 0.016 % fresh weight in the test on potato microtubers (microtubers of pMOG845 line 845-2); 0.051 % fresh weight in the test with potato microtubers (microtubers of pMOG845 line 845-8); 0.015 % fresh weight in the test on potato microtubers (microtubers of pMOG845 line 845-11); 0.011 % fresh weight with potato microtubers (microtubers of pMOG845 line 845-13); 0.112 % fresh weight in the test on potato microtubers (microtubers of pMOG845 line 845-22); 0.002 % fresh weight in the test with potato microtubers (microtubers of pMOG845 line 845-25). The “Trehalose (% fresh weight)” value with potato microtubers (microtubers of pMOG845 line 845-28) is on record as 0.109 % fresh weight; in the test on potato microtubers (microtubers of wild type Kardal), 0.001 % fresh weight. The “Trehalose level in microtubers versus medium without Validamycin A” value in the test on potato microtubers (transgenic (pMOG845) and wild-type microtubers, 10^−3 M Validamycin A) is recorded as “elevated levels of trehalose”. In addition, the “Trehalose accumulation, average” value in the test with potato microtubers (wild-type microtubers cultured with Validamycin A, ten out of seventeen lines) was 0.001 % trehalose (fw). Besides, in the test with wild-type tobacco plants, the Trehalose accumulation entry is given as “up to 0.0021 % (fw)”. Moreover, the IC50 in test [1] is 0.0001 to 1 µM. The “Inhibition of α- or β-glycohydrolase activity” value with α- or β-glycohydrolase is given as “does not significantly inhibit”.
